In this assay the target is 5-hydroxytryptamine receptor 2A (Rattus norvegicus, UniProt P14842).

The values below come from BindingDB's records for doi:10.1016/0024-3205(83)90740-3 (University of Toronto, 1983).

pKi: −log10 of the molar value. “And” between values parts separate entries of the source, which are not always exact repeats. Equal entries are not always repeated.

Chain of 5-hydroxytryptamine receptor 2A (P14842 whole entry): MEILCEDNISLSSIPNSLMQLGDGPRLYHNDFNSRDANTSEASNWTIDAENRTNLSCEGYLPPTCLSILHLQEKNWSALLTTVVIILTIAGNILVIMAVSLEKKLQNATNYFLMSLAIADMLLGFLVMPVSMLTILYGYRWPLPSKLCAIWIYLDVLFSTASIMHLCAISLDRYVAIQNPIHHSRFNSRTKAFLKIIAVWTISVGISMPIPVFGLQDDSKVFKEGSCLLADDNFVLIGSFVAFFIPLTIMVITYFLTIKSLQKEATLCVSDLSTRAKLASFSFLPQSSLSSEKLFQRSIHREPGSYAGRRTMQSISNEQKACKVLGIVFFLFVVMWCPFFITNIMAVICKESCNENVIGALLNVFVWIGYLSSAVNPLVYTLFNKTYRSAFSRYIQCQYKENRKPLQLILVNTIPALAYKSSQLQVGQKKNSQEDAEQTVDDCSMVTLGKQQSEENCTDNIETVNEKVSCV

On to `NCCc1c[nH]c2ccccc12` [1H-indole-3-ethanamine], for which the pKi – broadly, −log10 of the Ki, conventionally taken in molar units – is 5.53 and 5.77 and 6.27.
With `c1ccc2nc(N3CCNCC3)ccc2c1` [2-Piperazin-1-yl-quinoline (Quipazine)], the pKi is 6.24 and 6.65 and 7.00.
Take `CN(C)CCCSc1ccccc1NC(=O)/C=C/c1ccccc1` [CINANSERIN]: the negative logarithm of the Ki (pKi) was 8.00 and 8.26 and 8.35.
